Results published in patent US20190262291A1, “METHODS AND COMPOSITIONS FOR ALLEVIATING MYOPATHY” (priority 2016, published 2019).
Where two headings read alike, the source gives them in different places.

Columns and labels:
[1] = towards oxygenation in humans; cited from earlier work
[2] = in vivo; cited from earlier work
[3] = NOAEL for HMB oral ingestion in rats (Baxter et al.); assay type: in vivo, rat; conditions: for estimated human equivalent dose of rat NOAEL: in vivo, oral; for estimated human equivalent of NOAEL as total amount: assuming a body weight of 150 lbs
Experimental: This is an estimated human equivalent of 558 mg/kg and 665 mg/kg for men and women, respectively; assuming a body weight of 150 lbs equates to 38 g (males) and 45 g (females). […] Overall, standard doses of HMB appear to be well-tolerated over long periods of time.

[4] = test system: patients with statin-induced myopathy (SIM); test: Example 1: HMB and leucic acid combination therapy in patients with statin-induced myopathy; assay type: in vivo, human; conditions: two patients with SIM on statin, summary
Experimental: The effects of combined administration of HMB and leucic acid was studied in two patients with statin-induced myopathy (SIM). Both patients enrolled were under the care of a board certified cardiologist. […] person with a history of PCI/coronary stent ramus intermedius; historically statin intolerant lipid disorder with LDL=168, total cholesterol=281, with triglycerides=316 on a hypolipidemic regimen of Welchol, 6 tabs/d (for a total of 1500-3000 mg/d) and Zetia, 10 mg/d; unable to achieve goal (i.e., LDL cholesterol <100 mg % in patients with coronary risk factors and <70 mg % in coronary patients (with previous myocardial infarction (MI), percutaneous coronary intervention (PCI), or coronary bypass surgery) as well as patients with peripheral vascular disease and diabetics) off statins and therefore begun on Vytorin, 10/40 mg daily+3-hydroxy 3-methyl butyrate (HMB) at 2 grams BID. […] person with angiographic small vessel disease; type 2 diabetes and type 2a hyperlipidemia; history of statin intolerance with myalgia, weakness and severely elevated CPKs (900-1000 range, normal 200); patient therefore treated with Welchol 6 grams/d and Zetia 10 mg/d with an LDL=185 on this regimen. The patient was subsequently placed on Crestor 20 mg/d+HMB 2 grams BID with a drop in LDL=49 and improved CPK levels (300-400 range).

rats = conditions: oral ingestion, cited from earlier work
Human = conditions: cited from earlier work

CC(C)CC(O)C(=O)O (centres unmarked) [leucic acid, 2-hydroxy-4-methylpentanoic acid]
reaction half time [1]: 230 min
half-lives [2]: relatively short
time to reach peak levels [2]: quickly

CC(C)(O)CC(=O)O [HMB, β-hydroxy β-methylbutyrate]
estimated human equivalent dose of rat NOAEL ([3]; female, women): 665 mg/kg
estimated human equivalent of NOAEL as total amount ([3]; females): 45 g
estimated human equivalent dose of rat NOAEL ([3]; male, men): 558 mg/kg
estimated human equivalent of NOAEL as total amount ([3]; males): 38 g
resolution of SIM [4]: incomplete resolution of SIM
No Observed Adverse Effect Level (NOAEL) (rats; female rats): 4160 mg/kg
No Observed Adverse Effect Level (NOAEL) (rats; male rats): 3490 mg/kg
toxicological parameters in serum (Human; 3 g HMB daily for up to 8 weeks, youth and older persons): failed to alter toxicological parameters in serum
safety of long-term administration (Human; 3 g daily, one year of administration): safe
toxic effects on serum parameters (Human; approximately 6 g HMB daily (78 mg/kg) for one month, untrained young males subject to exercise): did not show any toxic effects
basophils (Human; half the dose (of approximately 6 g daily), considered to be insignificant): spontaneous increase in basophils
tolerability (Human; standard doses over long periods of time): well-tolerated
half-lives [2]: relatively short
time to reach peak levels [2]: quickly
